Data as given in patent US9440964B2, “Pesticidal compositions and processes related thereto” (Dow AgroSciences LLC, priority 2011, dated 2016).

Legend:
BAW (Spodoptera exigua) = assay: Bioassay on Beet Armyworm (BAW), 128-well diet tray; type: in vivo; conditions: percent mortality, second instar larvae, five to seven days; for pest or weed control at 50 µg/cm2: Spodoptera exigua, 168 h, 50 μg/cm^2 on diet, read-out: Rating BAW
Method: (§1) Certain molecules disclosed in this document were tested against BAW and CEW using procedures described in the following examples. In the reporting of the results, the “BAW & CEW Rating Table” was used (See Table Section).
Bioassays on BAW (Spodoptera exigua)
(§2) Trays were covered with a clear self-adhesive cover and held at 25° C., 14:10 light-dark for five to seven days. Percent mortality was recorded for the larvae in each well; activity in the eight wells was then averaged. The results are indicated in the table entitled “Table ABC: Biological Results” (See Table Section).

CEW (Helicoverpa zea) = assay: Bioassay on Corn Earworm (CEW), 128-well diet tray; type: in vivo; conditions: percent mortality, second instar larvae, five to seven days; for pest or weed control at 50 µg/cm2 / pest or weed control at 0.5 µg/cm2: Helicoverpa zea, 168 h; for pest or weed control at 50 µg/cm2: 50 μg/cm^2 on diet, read-out: Rating CEW; for pest or weed control at 0.5 µg/cm2: 0.5 μg/cm^2 on diet, read-out: Rating CEW (*Tested at 0.5 μg/cm^2)
Method: as §1
Bioassays on CEW (Helicoverpa zea)
as §2

Structure (SMILES) | pest or weed control at 50 µg/cm2 (BAW (Spodoptera exigua)) | pest or weed control at 50 µg/cm2 (CEW (Helicoverpa zea)) | Rating BAW (**Tested at 12.5 μg/cm^2) (BAW (Spodoptera exigua); 12.5 μg/cm^2 on diet) | Rating CEW (**Tested at 12.5 μg/cm^2) (CEW (Helicoverpa zea); 12.5 μg/cm^2 on diet) | pest or weed control at 0.5 µg/cm2 (CEW (Helicoverpa zea))
Cc1ccccc1N/C(S)=C(\C#N)C(=O)Nc1ccc(-c2ncn(-c3ccc(OC(F)(F)F)cc3)n2)cc1 [Molecule A29, (Z)-2-Cyano-3-mercapto-3-(o-tolylamino)-N-(4-(1-(4-(trifluoromethoxy)phenyl)-1H-1,2,4-triazol-3-yl)phenyl)acrylamide] | 0 to 50% | 50 to 100% | – | – | –
CC(C)c1ccccc1N1C(=O)CS/C1=C(/C#N)C(=O)Nc1ccc(-c2ncn(-c3ccc(OC(F)(F)F)cc3)n2)cc1 [Molecule A31, (Z)-2-Cyano-2-(3-(2-isopropylphenyl)-4-oxothiazolidin-2-ylidene)-N-(4-(1-(4-(trifluoromethoxy)phenyl)-1H-1,2,4-triazol-3-yl)phenyl)acetamide] | 50 to 100% | 50 to 100% | – | – | –
Cc1cccc(C)c1N/C(O)=C/C(=O)Nc1ccc(-c2ncn(-c3ccc(OC(F)(F)F)cc3)n2)cc1 [Molecule A32, (Z)-3-(2,6-dimethylphenylamino)-3-hydroxy-I-(4-(1-(4-(trifluoromethoxy)phenyl)-1H-1,2,4-triazol-3-yl)phenyl)acrylamide] | 50 to 100% | 50 to 100% | – | – | –
Cc1cc(C)c(N2C(=O)CS/C2=N\C(=O)Nc2ccc(-c3ncn(-c4ccc(OC(F)(F)F)cc4)n3)cc2)c(C)c1 [Molecule A36] | 50 to 100% | 50 to 100% | – | – | –
Cc1cc(C)c(N2C(=O)C(C)S/C2=N\C(=O)Nc2ccc(-c3ncn(-c4ccc(OC(F)(F)F)cc4)n3)cc2)c(C)c1 (centres unmarked) [Molecule A37] | 50 to 100% | 50 to 100% | – | – | –
CCC1CS/C(=N\C(=O)Nc2ccc(-c3ncn(-c4ccc(OC(F)(F)F)cc4)n3)cc2)N1c1c(C)cc(C)cc1C (centres unmarked) [Molecule A38] | 50 to 100% | 50 to 100% | – | – | –
Cc1cccc(C)c1N1CC(C)CS/C1=N\C(=O)Nc1ccc(-c2ncn(-c3ccc(OC(F)(F)F)cc3)n2)cc1 (centres unmarked) [Molecule A39] | 50 to 100% | 50 to 100% | – | – | –
Cc1cc(C)c(N2/C(=N/C(=O)Nc3ccc(-c4ncn(-c5ccc(OC(F)(F)F)cc5)n4)cc3)SCC2C)c(C)c1 (centres unmarked) [Molecule A40] | – | – | A** (50-100) | A** (50-100) | –
Cc1cc(C)c(N2CC(C)CS/C2=N\C(=O)Nc2ccc(-c3ncn(-c4ccc(OC(F)(F)F)cc4)n3)cc2)c(C)c1 (centres unmarked) [Molecule A41] | 50 to 100% | 50 to 100% | – | – | –
CC(C)c1ccccc1N/C(S)=N/C(=O)Nc1ccc(-c2ncn(-c3ccc(OC(F)(F)F)cc3)n2)cc1 [Molecule A48] | 50 to 100% | 50 to 100% | – | – | –
Cc1cc(C)c(N/C(S)=N/C(=O)Nc2ccc(-c3ncn(-c4ccc(OC(F)(F)F)cc4)n3)cc2)c(C)c1 [Molecule A49] | 50 to 100% | 50 to 100% | – | – | –
COc1cc(C)c(N/C(S)=N/C(=O)Nc2ccc(-c3ncn(-c4ccc(OC(F)(F)F)cc4)n3)cc2)c(C)c1 [Molecule A50] | 50 to 100% | 50 to 100% | – | – | –
Cc1ccccc1NC(=O)NC(=O)Nc1ccc(-c2ncn(-c3ccc(OC(F)(F)F)cc3)n2)cc1 [Molecule A51] | 50 to 100% | 50 to 100% | – | – | –
CCc1ccccc1NC(=O)NC(=O)Nc1ccc(-c2ncn(-c3ccc(OC(F)(F)F)cc3)n2)cc1 [Molecule A52] | 50 to 100% | 50 to 100% | – | – | –
CCC(C)c1ccccc1N/C(=N\C(=O)Nc1ccc(-c2ncn(-c3ccc(OC(F)(F)F)cc3)n2)cc1)SCOC(=O)C(C)C (centres unmarked) [Molecule A54] | 50 to 100% | 50 to 100% | – | – | –
CCc1cccc(C)c1N/C(=N\C(=O)Nc1ccc(-c2ncn(-c3ccc(OC(F)(F)F)cc3)n2)cc1)SCOC(=O)C(C)C [Molecule A55] | 50 to 100% | 50 to 100% | – | – | –
COc1ccc(NC(NC(=O)Nc2ccc(-c3ncn(-c4ccc(OC(F)(F)F)cc4)n3)cc2)SCOC(=O)C(C)C)c(C)c1 (centres unmarked) [Molecule A56] | 50 to 100% | 50 to 100% | – | – | –
CCc1ccccc1N/C(=N\C(=O)Nc1ccc(-c2ncn(-c3ccc(OC(F)(F)F)cc3)n2)cc1)SCOC(=O)C(C)C [Molecule A57] | 50 to 100% | 50 to 100% | – | – | –
CC(C)C(=O)OCS/C(=N/C(=O)Nc1ccc(-c2ncn(-c3ccc(OC(F)(F)F)cc3)n2)cc1)Nc1c(Cl)cccc1Cl [Molecule A58] | 50 to 100% | 50 to 100% | – | – | –
Cc1cc(C)c(N/C(=N\C(=O)Nc2ccc(-c3ncn(-c4ccc(OC(F)(F)F)cc4)n3)cc2)SCOC(=O)C(C)C)c(C)c1 [Molecule A59] | 50 to 100% | 50 to 100% | – | – | –
Cc1ccccc1N/C(=N\C(=O)Nc1ccc(-c2ncn(-c3ccc(OC(F)(F)F)cc3)n2)cc1)SCOC(=O)C(C)C [Molecule A60] | 50 to 100% | 50 to 100% | – | – | –
CC(C)C(=O)OCS/C(=N/C(=O)Nc1ccc(-c2ncn(-c3ccc(OC(F)(F)F)cc3)n2)cc1)Nc1c(F)cccc1F [Molecule A61] | 50 to 100% | 50 to 100% | – | – | –

Structure (SMILES) | pest or weed control at 50 µg/cm2 (BAW (Spodoptera exigua)) | pest or weed control at 50 µg/cm2 (CEW (Helicoverpa zea)) | Rating BAW (**Tested at 12.5 μg/cm^2) (BAW (Spodoptera exigua); 12.5 μg/cm^2 on diet) | Rating CEW (**Tested at 12.5 μg/cm^2) (CEW (Helicoverpa zea); 12.5 μg/cm^2 on diet) | pest or weed control at 0.5 µg/cm2 (CEW (Helicoverpa zea))
O=C(/N=C(\S)Nc1ccccc1C1CC1)Nc1ccc(-c2ncn(-c3ccc(OC(F)(F)F)cc3)n2)cc1 [Molecule A63] | 50 to 100% | – | – | – | 50 to 100%
CCCc1ccccc1N/C(S)=N/C(=O)Nc1ccc(-c2ncn(-c3ccc(OC(F)(F)F)cc3)n2)cc1 [Molecule A64] | 50 to 100% | – | – | – | 50 to 100%
CC(C)(C)c1ccccc1N/C(S)=N/C(=O)Nc1ccc(-c2ncn(-c3ccc(OC(F)(F)F)cc3)n2)cc1 [Molecule A67] | 50 to 100% | – | – | – | 50 to 100%
Cc1ccc(N/C(S)=N/C(=O)Nc2ccc(-c3ncn(-c4ccc(OC(F)(F)F)cc4)n3)cc2)c(C)c1 [Molecule A68] | 50 to 100% | – | – | – | 50 to 100%
Cc1cccc(Cl)c1N/C(S)=N/C(=O)Nc1ccc(-c2ncn(-c3ccc(OC(F)(F)F)cc3)n2)cc1 [Molecule A70] | 50 to 100% | – | – | – | 50 to 100%
Cc1ccc(Cl)cc1N/C(S)=N/C(=O)Nc1ccc(-c2ncn(-c3ccc(OC(F)(F)F)cc3)n2)cc1 [Molecule A72] | 50 to 100% | – | – | – | 50 to 100%
Cc1ccc(N/C(S)=N/C(=O)Nc2ccc(-c3ncn(-c4ccc(OC(F)(F)F)cc4)n3)cc2)c(Cl)c1 [Molecule A73] | 50 to 100% | – | – | – | 50 to 100%
Cc1cccc(Cl)c1N1C(=O)CS/C1=N\C(=O)Nc1ccc(-c2ncn(-c3ccc(OC(F)(F)F)cc3)n2)cc1 [Molecule A74] | 50 to 100% | – | – | – | 50 to 100%
Cc1cccc(N2C(=O)CS/C2=N\C(=O)Nc2ccc(-c3ncn(-c4ccc(OC(F)(F)F)cc4)n3)cc2)c1C [Molecule A75] | 50 to 100% | – | – | – | 50 to 100%
Cc1ccc(Cl)cc1N1C(=O)CS/C1=N\C(=O)Nc1ccc(-c2ncn(-c3ccc(OC(F)(F)F)cc3)n2)cc1 [Molecule A76] | 50 to 100% | – | – | – | 50 to 100%
Cc1c(F)cccc1N/C(S)=N/C(=O)Nc1ccc(-c2ncn(-c3ccc(OC(F)(F)F)cc3)n2)cc1 [Molecule A79] | 50 to 100% | – | – | – | 50 to 100%
CC(C)c1cccc(Cl)c1N/C(S)=N/C(=O)Nc1ccc(-c2ncn(-c3ccc(OC(F)(F)F)cc3)n2)cc1 [Molecule A81] | 50 to 100% | 50 to 100% | – | – | –
CC(C)c1ccc(F)cc1N/C(S)=N/C(=O)Nc1ccc(-c2ncn(-c3ccc(OC(F)(F)F)cc3)n2)cc1 [Molecule A82] | 50 to 100% | – | – | – | 50 to 100%
Cc1ccc(N/C(S)=N/C(=O)Nc2ccc(-c3ncn(-c4ccc(OC(F)(F)F)cc4)n3)cc2)c(C(C)C)c1 [Molecule A84] | 50 to 100% | – | – | – | 50 to 100%
CC(C)c1ccc(F)cc1N1C(=O)CS/C1=N\C(=O)Nc1ccc(-c2ncn(-c3ccc(OC(F)(F)F)cc3)n2)cc1 [Molecule A86] | 50 to 100% | – | – | – | 50 to 100%
Cc1ccc(C(C)C)c(N2C(=O)CS/C2=N\C(=O)Nc2ccc(-c3ncn(-c4ccc(OC(F)(F)F)cc4)n3)cc2)c1 [Molecule A87] | 50 to 100% | – | – | – | 50 to 100%
Cc1ccc(N2C(=O)CS/C2=N\C(=O)Nc2ccc(-c3ncn(-c4ccc(OC(F)(F)F)cc4)n3)cc2)c(C(C)C)c1 [Molecule A88] | 50 to 100% | – | – | – | 50 to 100%
Cc1ccc(F)c(N/C(S)=N/C(=O)Nc2ccc(-c3ncn(-c4ccc(OC(F)(F)F)cc4)n3)cc2)c1 [Molecule A89] | 50 to 100% | – | – | – | 50 to 100%
O=C(/N=C1\SCC(=O)N1c1ccc(Cl)cc1Cl)Nc1ccc(-c2ncn(-c3ccc(OC(F)(F)F)cc3)n2)cc1 [Molecule A92] | 50 to 100% | – | – | – | 50 to 100%
Cc1c(F)cccc1N1C(=O)CS/C1=N\C(=O)Nc1ccc(-c2ncn(-c3ccc(OC(F)(F)F)cc3)n2)cc1 [Molecule A93] | 50 to 100% | – | – | – | 50 to 100%
Cc1ccc(F)c(N2C(=O)CS/C2=N\C(=O)Nc2ccc(-c3ncn(-c4ccc(OC(F)(F)F)cc4)n3)cc2)c1 [Molecule A94] | 50 to 100% | – | – | – | 50 to 100%
